For assay [1], the system named is facial blood flow. As to conditions: rat (Escott et al. 1995); cited from earlier work.
The next assay concerns middle meningeal artery. As to conditions: rats, prior administration (Williamson et al. 1997); cited from earlier work.
The target of assay [2] is recombinant human CL receptor/RAMP1 (Homo sapiens (Human), UniProt O60894+Q16602). Description: Recombinant receptor binding assay (125I-hCGRP). The protocol: Human CL receptor (Genbank accession number L76380) was subcloned into the expression vector pIREShyg2 (BD Biosciences Clontech) as a 5′NheI and 3′ PmeI fragment. Human RAMP1 (Genbank accession number AJ001014) was subcloned into the expression vector pIRESpuro2 (BD Biosciences Clontech) as a 5′NheI and 3′NotI fragment. HEK 293 cells (human embryonic kidney cells; ATCC #CRL-1573) were cultured in DMEM with 4.5 g/L glucose, 1 mM sodium pyruvate and 2 mM glutamine supplemented with 10% fetal bovine serum (FBS), 100 units/mL penicillin and 100 µg/mL streptomycin, and maintained at 37° C. and 95% humidity. Cells were subcultured by treatment with 0.25% trypsin with 0.1% EDTA in HBSS. Stable cell line generation was accomplished by co-transfecting 10 μg of DNA with 30 μg Lipofectamine 2000 (Invitrogen) in 75 cm^2 flasks. CL receptor and RAMP1 expression constructs were co-transfected in equal amounts. Twenty-four hours after transfection the cells were diluted and selective medium (growth medium+300 μg/mL hygromycin and 1 μg/mL puromycin) was added the following day. A clonal cell line was generated by single cell deposition utilizing a FACS Vantage SE (Becton Dickinson). Growth medium was adjusted to 150 μg/mL hygromycin and 0.5 μg/mL puromycin for cell propagation.
recombinant human CL receptor/RAMP1, sequence (Q16602 23-461): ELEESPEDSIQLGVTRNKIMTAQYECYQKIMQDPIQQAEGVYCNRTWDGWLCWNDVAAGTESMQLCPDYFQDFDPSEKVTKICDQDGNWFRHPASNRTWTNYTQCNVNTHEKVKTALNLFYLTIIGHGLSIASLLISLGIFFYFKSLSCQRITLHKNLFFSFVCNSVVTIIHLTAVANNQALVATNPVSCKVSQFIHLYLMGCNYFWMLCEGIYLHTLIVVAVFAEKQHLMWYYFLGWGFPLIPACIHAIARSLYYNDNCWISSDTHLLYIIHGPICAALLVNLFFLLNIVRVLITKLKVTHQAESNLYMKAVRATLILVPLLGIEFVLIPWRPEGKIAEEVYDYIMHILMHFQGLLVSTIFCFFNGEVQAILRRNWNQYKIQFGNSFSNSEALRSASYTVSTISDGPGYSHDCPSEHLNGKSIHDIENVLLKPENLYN
recombinant human CL receptor/RAMP1, sequence (O60894 27-148): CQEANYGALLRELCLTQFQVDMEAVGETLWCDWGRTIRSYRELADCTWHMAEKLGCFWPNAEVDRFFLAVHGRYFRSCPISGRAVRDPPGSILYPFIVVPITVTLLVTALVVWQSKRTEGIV
Recombinant Receptor Binding Assay:
The cell suspension was disrupted with a laboratory homogenizer and centrifuged at 48,000 g to isolate membranes. The pellets were resuspended in harvest buffer plus 250 mM sucrose and stored at −70° C. For binding assays, 20 μg of membranes were incubated in 1 mL binding buffer (10 mM HEPES, pH 7.4, 5 mM MgCl2, and 0.2% BSA) for 3 h at room temperature containing 10 pM ^125I-hCGRP (GE Healthcare) and antagonist. The assay was terminated by filtration through 96-well GFB glass fiber filter plates (PerkinElmer) that had been blocked with 0.05% polyethyleneimine. The filters were washed 3 times with ice-cold assay buffer (10 mM HEPES, pH 7.4, and 5 mM MgCl2). Scintillation fluid was added and the plates were counted on a Topcount (Packard). Non-specific binding was determined and the data analysis was carried out with the apparent dissociation constant (Ki) determined by using a non-linear least squares fitting the bound CPM data to the equation below:
[formula] Where Y is observed CPM bound, Ymax is total bound counts, Ymin is non specific bound counts, (Ymax−Ymin) is specific bound counts, % Imax is the maximum percent inhibition, % I min is the minimum percent inhibition, radiolabel is the probe, and the Kd is the apparent dissociation constant for the radioligand for the receptor as determined by hot saturation experiments.

Assay [3] relates to headache induced by CGRP infusion. As to conditions: control group (Petersen et al. 2005); cited from earlier work.
For assay [4], the system named is acute attacks of migraine. As to conditions: cited from earlier work.
For assay [5], the system named is facial blood flow. As to conditions: marmoset (Doods et al. 2000); cited from earlier work.
Setting [6] is: exemplary compounds of the invention, 10 pM 125I-hCGRP, membranes of HEK 293 cells, read-out: Ki.
The mark [7] stands for this setting: analogues disclosed in U.S. Pat. No. 7,390,798 and US 2010/0179166, read-out: Ki (CGRP binding data).

Counter-ions that a name gives are not always drawn. Like-named read-outs stand apart in the source and are kept apart here. Ends that are not written are not given here.

A word on the Ki: it is a measure of affinity in units of concentration, obtained from inhibition or displacement.

“CGRP (8-37) (VTHRLAGLLSRSGGVVKNNFVPTNVGSKAF; ends and bridges not checked; UniProt P06881 90-119, looked up, fragment) [a peptide CGRP receptor antagonist]”: the “effect on increased facial blood flow” value with facial blood flow [1] is “inhibited”. Also, the “effect on increase of middle meningeal artery diameter” value in the assay with middle meningeal artery is “blocked”.
As for `O=C(N[C@H]1C[C@@H](c2c(F)cccc2Cl)CN(CC(F)(F)F)C1=O)c1cnc2c(c1)C[C@@]1(C2)C(=O)Nc2ncccc21` [Example 11], the Ki in assay [2] (setting [6]) was 0.25 nM.
With `Cc1ccccc1[C@@H]1C[C@H](NC(=O)c2cnc3c(c2)C[C@@]2(C3)C(=O)Nc3ncccc32)C(=O)N(CC(F)(F)F)[C@@H]1C` [Example 3, (6S)—N-[(3 S,5S,6R)-6-Methyl-5-(2-methylphenyl)-2-oxo-1-(2,2,2-trifluoroethyl)piperidin-3-yl]-2′-oxo-1′,2′,5,7-tetrahydrospiro[cyclopenta[b]pyridine-6,3′-pyrrolo[2,3-b]pyridine]-3-carboxamide], the Ki in assay [2] (setting [6]) came to 0.067 nM.
With `CC(C)(O)CN1C[C@H](c2cccc(F)c2F)CC[C@@H](NC(=O)c2ccc3c(c2)CC2(C3)C(=O)Nc3ncccc32)C1=O` (stereo partly drawn) [Example 10 from U.S. Pat. No. 7,390,798], the Ki in assay [2] (setting [7]) worked out at 1.7 nM.
For the compound `CC(C)(O)c1cnc2n1C[C@H](c1cccc(F)c1F)CC[C@H]2NC(=O)c1cc2c(cn1)CC1(C2)C(=O)Nc2ncccc21` (stereo partly drawn) [Example 8 from US 2010/0179166], the Ki in assay [2] (setting [7]) is 4.3 nM.
As for `NCCCC[C@H](NC(=O)[C@@H](Cc1cc(Br)c(O)c(Br)c1)NC(=O)N1CCC(N2Cc3ccccc3NC2=O)CC1)C(=O)N1CCN(c2ccncc2)CC1` [BIBN4096BS], the “prevention of headache induced by CGRP infusion” value in assay [3] is on record as “able to prevent headache induced by CGRP infusion”. Besides, the “effectiveness in treating acute attacks of migraine” value in assay [4] (clinical trials (Olesen et al. 2004)) is recorded as “effective in treating acute attacks of migraine”. The “effect on increase in facial blood flow” value in the assay with facial blood flow [5] is reported as “could be blocked”.
For the compound `O=C(N[C@H]1C[C@@H](c2cccc(F)c2F)CN(CC2CCC2)C1=O)c1cnc2c(c1)C[C@@]1(C2)C(=O)Nc2ncccc21` [Example 17], the Ki in assay [2] (setting [6]) worked out at 0.055 nM.
In the case of `CN1C[C@H](c2cccc(F)c2F)CC[C@@H](NC(=O)c2ccc3c(c2)CC2(C3)C(=O)Nc3ncccc32)C1=O` (stereo partly drawn) [Example 8 from U.S. Pat. No. 7,390,798], in assay [2] (setting [7]), the Ki was determined as 7.4 nM.
As to `O=C(N[C@@H]1CC[C@@H](c2cccc(F)c2F)CN(CC(F)(F)F)C1=O)c1ccc2c(c1)CC1(C2)C(=O)Nc2ncccc21` (stereo partly drawn) [Example 9 from U.S. Pat. No. 7,390,798], the Ki in assay [2] (setting [7]) came out at 1.9 nM.
As to `C[C@@H]1[C@H](c2cc(F)cc(F)c2F)C[C@H](NC(=O)c2cnc3c(c2)C[C@@]2(C3)C(=O)Nc3ncccc32)C(=O)N1CC(F)(F)F` [Example 5, (6S)—N-[(3S,5S,6R)-6-Methyl-2-oxo-1-(2,2,2-trifluoroethyl)-5-(2,3,5-trifluorophenyl)piperidin-3-yl]-2′-oxo-1′,2′,5,7-tetrahydrospiro[cyclopenta[b]pyridine-6,3′-pyrrolo[2,3-b]pyridine]-3-carboxamide dihydrochloride], the Ki in assay [2] (setting [6]) stood at 0.017 nM.
The same measure, in the same setting: next, `C[C@@H]1[C@H](c2ccccc2)C[C@H](NC(=O)c2cnc3c(c2)C[C@@]2(C3)C(=O)Nc3ncc(C#N)cc32)C(=O)N1CC(F)(F)F` [Example 30]: 0.14 nM.
As to `O=C(N[C@@H]1CC[C@@H](c2cccc(F)c2F)CN(CC(F)(F)F)C1=O)N1CCC(n2c(=O)[nH]c3ncccc32)CC1` [telcagepant], the antimigraine effectiveness entry in assay [4] (phase III clinical trials, orally bioavailable) is recorded as “shown antimigraine effectiveness”.
Regarding `C[C@@H]1[C@H](c2ccccc2)C[C@H](NC(=O)c2cnc3c(c2)C[C@@]2(C3)C(=O)Nc3ncncc32)C(=O)N1CC(F)(F)F` [Example 31], in assay [2] (setting [6]), the Ki worked out at 0.17 nM.
Still for that read-out and setting: next, `O=C(N[C@H]1C[C@@H](c2ccccc2F)CN(CC(F)(F)F)C1=O)c1cnc2c(c1)C[C@@]1(C2)C(=O)Nc2ncccc21` [Example 6]: 0.21 nM; `C[C@@H]1[C@H](c2ccccc2)C[C@H](NC(=O)c2cnc3c(c2)C[C@@]2(C3)C(=O)Nc3ncccc32)C(=O)N1CC(F)(F)F` [Example 1, (6S)—N-[(3S,5S,6R)-6-Methyl-2-oxo-5-phenyl-1-(2,2,2-trifluoroethyl)piperidin-3-yl]-2′-oxo-1′,2′,5,7-tetrahydrospiro[cyclopenta[b]pyridine-6,3′-pyrrolo[2,3-b]pyridine]-3-carboxamide]: 0.067 nM.
